# Data: patent US20020028851A1, “Guanylhydrazones and their use to treat inflammatory conditions” (priority 1994, published 2002)
# Like-named read-outs stand apart in the source and are kept apart here.
# Assays:
# RAW 264.7 cells [1] = experiment: Whole cell inhibition assay for urea output; type: cell-based, murine; conditions: for urea % suppression of induced production: γIFN+LPS, 18 hours; for IC50: interpolated, γIFN+LPS-activated RAW 264.7, 18 hours, read-out: I.C.50 (in parenthesis), inhibition of urea production
# Method: (§1) RAW 264.7 cells are plated in microculture wells at 1×10^6/ml in RPMI 1640 with 10% FBS and otherwise standard culture conditions and allowed to adhere for 5 hours. They are then activated with 25 U/ml γIFN and 0.1 μg/ml LPS in the presence of test inhibitors. The urea concentration present in the supernatant media, after 18 hours of culture, is determined by a colorimetric blood urea nitrogen diacetylmonoxime assay performed on an aliquot of the culture supernatant (Sigma Chem. Co., St. Louis, Mo.) and inhibition is expressed as the percentage urea compared to that of a parallel control culture treated identically except that the concentration of added inhibitor is zero.
# (§2) Various concentrations of the test compounds are included in the media of the stimulated RAW 264.7 cells in culture. The concentration of urea and/or nitrite after 18 hours of activated culture is determined and compared to the uninhibited control value obtained from at least one parallel culture. The fractional reduction is calculated for each concentration of inhibitor and the IC50 (concentration giving 50% reduction) is interpolated. Compounds were dissolved in media with mild heat (60° C.). Those with limited solubility were dissolved in base. The concentration of stock solutions of those compounds which were not completely soluble was determined by OD280.
# RAW 264.7 cells [2] = experiment: Whole cell inhibition assay for arginine uptake; type: cell-based, murine; conditions: γIFN+LPS, 8 hours
# Method: In the embodiment described in the working example herein, a test population of cells was cultured for about 3 hours so that the cells became firmly adherent. Various concentrations of the potential inhibitors were then added to parallel cultures. One hour later the macrophage stimulators, e.g. including, but not limited to LPS and γIFN, were added. Eighteen hours later the cells were washed in a warm balanced salt solution supplemented with glucose. Carrier-free radiolabelled arginine was added; after 5 minutes, active uptake of arginine was stopped by washing the cell three times with buffer, chilled to 0° C., containing 10 mM unlabeled arginine to displace any externally bound label. The contents of the washed cells are solubilized in 100 μl of formic acid and counted by standard techniques.
# RAW 264.7 cells are plated in standard 96-well microculture plates at a concentration of 10^5/well and allowed to adhere for from 2 hours to overnight. The medium is then replaced with medium containing the compound to be tested. One hour later, the medium is supplemented so as to contain 25 U/ml γIFN and 0.1 μg/ml LPS and the cultures incubated a further. The cells are then rinsed twice in HEPES- buffered Krebs salt solution with 0.1% glucose. Carrier-free tetra-^3H-arginine is added to each well (2.5 μCi/well with specific activity of […]) and the active uptake of arginine is allowed to continue for a 5 minute period after which the cells are rapidly cooled to 0° C. by lavage with iced saline containing 10 mM unlabeled arginine to displace any externally bound label. The contents of the washed cells are solubilized in 100 Al of formic acid and counted by standard techniques. In subsequent experiments to determine the acitivity of the inhibitors, incubations were performed for 8 hours.
# (§3) This section describes experiments that measure the concentration of Compound No. 14 needed to inhibit arginine uptake and NO output. The techniques employed were described in section 7.1 supra.
# [3] = Solubility on preparing test solutions; type: physicochemical; conditions: preparation of test solutions
# Method: as §2
# RAW 264.7 cells [4] = experiment: Whole cell inhibition assay for NO (nitrite) output; type: cell-based, murine; conditions: γIFN+LPS, 18 hours
# Method: as §1
# The production of nitrite is determined by assay of the same tissue culture supernatant by means of a calorimetric assay. Briefly, 4 parts of test solution containing 1% (w/v) sulfanilamide, 0.1% naphthylethylenediamine di-HCl (Griess Reagent), 2.5% H3PO4 and one part media are mixed, incubated for 10 minutes and the absorbance at 560 nm determined. The nitrite concentrations are interpolated from reference curves prepared using NaNO2.
# as §2, §3
smiles,measurement,setting,value
CC(=O)c1cc(NC(=O)NCCN(CCNC(=NNC(=N)N)Nc2cc(C(C)=NNC(=N)N)cc(C(C)=NNC(=N)N)c2)CCNC(=NNC(=N)N)Nc2cc(C(C)=NNC(=N)N)cc(C(C)=NNC(=N)N)c2)cc(C(C)=O)c1.Cl.Cl.Cl.Cl.Cl.Cl.Cl (hydrate or solvate),melting point,,245 to 246 °C (dec.)
CC(=O)c1cccc(NC(=NNC(=N)N)c2cc(C(=NNC(=N)N)Nc3cccc(C(C)=O)c3)cc(C(=NNC(=N)N)Nc3cccc(C(C)=O)c3)c2)c1.Cl.Cl.Cl (hydrate or solvate),melting point,,270 to 275 °C (dec.)
"CC(=NNC(=N)N)c1cccc(OCCOc2cccc(C(C)=NNC(=N)N)c2)c1.Cl.Cl [Compound 15, 2,2′-[1,2-ethanediylbis(oxy-3,1-phenyleneethylidyne)] bishydrazinecarboximidamide dihydrochloride]",urea % suppression of induced production,RAW 264.7 cells [1]; dose 5 μM,8%
same,urea % suppression of induced production,RAW 264.7 cells [1]; dose 15.0 μM,100%
same,urea % suppression of induced production,RAW 264.7 cells [1]; dose 150 μM,100%
same,IC50,RAW 264.7 cells [1],10 µM
same,arginine transport % suppression of induced peak,RAW 264.7 cells [2]; dose 5 μM,10%
same,arginine transport % suppression of induced peak,RAW 264.7 cells [2]; dose 15.0 μM,35%
same,arginine transport % suppression of induced peak,RAW 264.7 cells [2]; dose 150 μM,100%
same,Dissolved in (solubility),[3],Not soluble;
same,no2/no3 % suppression of induced production,RAW 264.7 cells [4]; dose 5 μM,0%
same,no2/no3 % suppression of induced production,RAW 264.7 cells [4]; dose 15.0 μM,9%
same,no2/no3 % suppression of induced production,RAW 264.7 cells [4]; dose 150 μM,100%
"CC(=NNC(=N)N)c1cc(NC(=O)CCCC(=O)Nc2cc(C(C)=NNC(=N)N)cc(C(C)=NNC(=N)N)c2)cc(C(C)=NNC(=N)N)c1.Cl.Cl.Cl.Cl [Compound 13, N,N′-bis(3,5-diacetyl-phenyl)pentanediamide tetrakis(amidinohydrazone) tetrahydrochloride]",urea % suppression of induced production,RAW 264.7 cells [1]; dose 10 μM,45%
same,urea % suppression of induced production,"RAW 264.7 cells [1]; dose 25 μM, compound as precipitate",77%
same,urea % suppression of induced production,"RAW 264.7 cells [1]; dose 25 μM, compound dissolved as solution",100%
same,urea % suppression of induced production,RAW 264.7 cells [1]; dose 50 μM,87%
same,urea % suppression of induced production,RAW 264.7 cells [1]; dose 500 μM,100%
same,IC50,RAW 264.7 cells [1],10 µM
same,arginine transport % suppression of induced peak,RAW 264.7 cells [2]; dose 25 μM,19%
same,arginine transport % suppression of induced peak,RAW 264.7 cells [2]; dose 50 μM,7%
same,arginine transport % suppression of induced peak,RAW 264.7 cells [2]; dose 500 μM,93%
same,no2/no3 % suppression of induced production,RAW 264.7 cells [4]; dose 25 μM,43%
same,no2/no3 % suppression of induced production,RAW 264.7 cells [4]; dose 500 μM,52%
CC(=NNC(=N)N)c1cc(NC(=O)c2ccccc2)cc(C(C)=NNC(=N)N)c1.Cl.Cl,melting point,,268 to 272 °C
"CC(=NNC(=N)N)c1ccc(NC(=O)Nc2ccc(C(C)=NNC(=N)N)cc2)cc1 [Compound 8, 4,4′-diacetyldiphenylurea bis(guanylhydrazone)]",urea % suppression of induced production,RAW 264.7 cells [1]; dose 50 μM,76%
same,urea % suppression of induced production,RAW 264.7 cells [1]; dose 500 μM,100%
same,IC50,RAW 264.7 cells [1],50 µM
CC(=O)c1cc(NC(=NNC(=N)N)NCC(C)CCCNC(=NNC(=N)N)Nc2cc(C(C)=NNC(=N)N)cc(C(C)=NNC(=N)N)c2)cc(C(C)=O)c1.Cl.Cl.Cl.Cl (stereo not shown) (hydrate or solvate),melting point,,258 to 259 °C
CC(=NNC(=N)N)c1cc(NC(=N)NC(=N)N)cc(C(C)=NNC(=N)N)c1.Cl.Cl.Cl,melting point,,294 to 297 °C
"CC(=NNC(=N)N)c1ccc(NC(=O)Nc2cc(C(C)=NNC(=N)N)cc(C(C)=NNC(=N)N)c2)cc1.Cl.Cl.Cl [Compound 9, N-(4-acetylphenyl)-N′-(3,5-diacetylphenyl)urea tris(amidinohydrazone) trihydrochloride]",urea % suppression of induced production,RAW 264.7 cells [1]; dose 1 μM,0%
same,urea % suppression of induced production,RAW 264.7 cells [1]; dose 10 μM,60%
same,urea % suppression of induced production,RAW 264.7 cells [1]; dose 25 μM,100%
same,IC50,RAW 264.7 cells [1],10 µM
same,arginine transport % suppression of induced peak,RAW 264.7 cells [2]; dose 1 μM,14%
same,arginine transport % suppression of induced peak,RAW 264.7 cells [2]; dose 10 μM,32%
same,arginine transport % suppression of induced peak,RAW 264.7 cells [2]; dose 25 μM,68%
same,no2/no3 % suppression of induced production,RAW 264.7 cells [4]; dose 1 μM,0%
same,no2/no3 % suppression of induced production,RAW 264.7 cells [4]; dose 10 μM,53%
same,no2/no3 % suppression of induced production,RAW 264.7 cells [4]; dose 25 μM,71%
"CC(=NNC(=N)N)c1ccc(O)c(O)c1.Cl [Compound 7, 2-[(3,4-dihydroxyphenyl)-ethylidyne]hydrazinecarboximidamide hydrochloride]",urea % suppression of induced production,RAW 264.7 cells [1]; dose 10 μM,23%
same,urea % suppression of induced production,RAW 264.7 cells [1]; dose 100 μM,35%
same,urea % suppression of induced production,RAW 264.7 cells [1]; dose 1 mM,40%
same,urea % suppression of induced production,RAW 264.7 cells [1]; dose 2 mM,55%
same,urea % suppression of induced production,RAW 264.7 cells [1]; dose 10 mM,100%
same,IC50,RAW 264.7 cells [1],2000 µM
CC(=O)c1ccc(NC(=O)NCCN(CCNC(=NNC(=N)N)Nc2ccc(C(C)=O)cc2)CCNC(=NNC(=N)N)Nc2ccc(C(C)=NNC(=N)N)cc2)cc1.Cl.Cl.Cl (hydrate or solvate),melting point,,224 to 225 °C (dec.)
CC(=O)c1ccc(NC(=O)NCCCN(CCCNC(=NNC(=N)N)Nc2ccc(C(C)=O)cc2)CCCNC(=NNC(=N)N)Nc2ccc(C(C)=NNC(=N)N)cc2)cc1.Cl.Cl.Cl (hydrate or solvate),melting point,,209 to 210 °C (dec.)
"CC(=NNC(=N)N)c1cc(C(C)=NNC(=N)N)cc(C(C)=NNC(=N)N)c1 [Compound 1, 1,3,5-triacetylbenzene tris(guanylhydrazone)]",IC50,"RAW 264.7 cells [1]; Mus musculus, RAW264.7",10 µM
same,urea % suppression of induced production,RAW 264.7 cells [1]; dose 10 μM,60%
same,urea % suppression of induced production,RAW 264.7 cells [1]; dose 25 μM,100%
same,arginine transport % suppression of induced peak,RAW 264.7 cells [2]; dose 1 μM,0%
same,arginine transport % suppression of induced peak,RAW 264.7 cells [2]; dose 10 μM,20%
same,arginine transport % suppression of induced peak,RAW 264.7 cells [2]; dose 25 μM,40%
same,no2/no3 % suppression of induced production,RAW 264.7 cells [4]; dose 10 μM,58%
same,no2/no3 % suppression of induced production,RAW 264.7 cells [4]; dose 25 μM,72%
"CC(=O)c1cccc(NC(CCCC(=NNC(=N)N)Nc2cccc(C(C)=O)c2)=NNC(=N)N)c1.Cl.Cl [Compound 12, N,N′-bis(3-acetylphenyl)pentanediamide bis(amidinohydrazone) dihydrochloride]",melting point,,187 to 191 °C
"CC(=NNC(=N)N)c1ccc(-n2ccnc2)cc1.Cl [Compound 6, 2-([(1H-imidazol-1-yl)-1,4-phenylene]ethylidyne)hydrazinecarboximidamide hydrochloride]",urea % suppression of induced production,RAW 264.7 cells [1]; dose 50 μM,0%
same,urea % suppression of induced production,RAW 264.7 cells [1]; dose 100 μM,40%
same,urea % suppression of induced production,RAW 264.7 cells [1]; dose 1 mM,100%
same,IC50,RAW 264.7 cells [1],250 µM
"Cl.Cl.N=C(N)NN=C(CCC(=NNC(=N)N)c1ccccc1)c1ccccc1 [Compound 20, 2,2′-(1,4-diphenyl-1,4-butanediylidene)bishydrazinecarboximidamide dihydrochloride]",IC50,"RAW 264.7 cells [1]; Mus musculus, RAW264.7",300 µM
same,urea % suppression of induced production,RAW 264.7 cells [1]; dose 10 μM,16%
same,urea % suppression of induced production,RAW 264.7 cells [1]; dose 50 μM,19%
same,urea % suppression of induced production,RAW 264.7 cells [1]; dose 200 μM,38%
same,urea % suppression of induced production,RAW 264.7 cells [1]; dose 400 μM,100%
same,no2/no3 % suppression of induced production,RAW 264.7 cells [4]; dose 10 μM,0%
same,no2/no3 % suppression of induced production,RAW 264.7 cells [4]; dose 50 μM,0%
same,no2/no3 % suppression of induced production,RAW 264.7 cells [4]; dose 200 μM,15%
same,no2/no3 % suppression of induced production,RAW 264.7 cells [4]; dose 400 μM,84%
same,melting point,,285 to 286 °C
CC(=O)c1cc(NC(=O)NCCCN(CCCNC(=NNC(=N)N)Nc2cc(C(C)=NNC(=N)N)cc(C(C)=NNC(=N)N)c2)CCCNC(=NNC(=N)N)Nc2cc(C(C)=NNC(=N)N)cc(C(C)=NNC(=N)N)c2)cc(C(C)=O)c1.Cl.Cl.Cl.Cl.Cl.Cl.Cl (hydrate or solvate),melting point,,250 to 251 °C (dec.)
COc1ccc(C=NNC(=N)N)cc1OCCCCCOc1cc(C=NNC(=N)N)ccc1OC.Cl.Cl,melting point,,195 to 198 °C
